Measured values reported in publication PMC8301602 (AIChE journal. American Institute of Chemical Engineers, 2020).
Where two headings read alike, the source gives them in different places.

Assays:
EcFbFP (B. subtilis) [1] = assay: SEC
EcFbFP (B. subtilis) [2] = assay: SEC; remark: listed apart in the source
iLOV = iLOV (Arabidopsis thaliana, UniProt P93025, S394T/S409G/C426A/I452T/F470L/M475V); assay: fluorescence titration of apo protein, emission at […] nm; assay type: binding; conditions: PBS; noncooperative 1:1 fit, protein concentration fitted
iLOV, sequence (P93025 387-496 S394T/S409G/C426A/I452T/F470L/M475V limits assumed): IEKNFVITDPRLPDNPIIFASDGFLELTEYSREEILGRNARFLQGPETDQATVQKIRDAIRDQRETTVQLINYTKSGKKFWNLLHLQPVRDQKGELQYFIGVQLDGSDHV

EcFbFP = target: T1, EcFbFP (Bacillus subtilis, UniProt O34627, C62A); assay: as above; assay type: binding
T1 sequence (O34627 1-137 C62A limits assumed): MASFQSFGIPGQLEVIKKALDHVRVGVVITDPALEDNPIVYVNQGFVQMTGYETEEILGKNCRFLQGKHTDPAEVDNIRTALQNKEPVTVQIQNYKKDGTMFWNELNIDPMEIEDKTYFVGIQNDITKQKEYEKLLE

stoichiometry N (EcFbFP (B. subtilis) [1]) | stoichiometry N (EcFbFP (B. subtilis) [2]) | Compound | Kd (iLOV) | Kd (EcFbFP)
2 | 2 | EcFbFP | – | –
– | – | Cc1cc2nc3c(=O)[nH]c(=O)nc-3n(C[C@H](O)[C@H](O)[C@H](O)COP(=O)(O)OP(=O)(O)OC[C@H]3O[C@@H](n4cnc5c(N)ncnc54)[C@H](O)[C@@H]3O)c2cc1C [FAD] | 180 ± 30 nM | 130 ± 20 nM
– | – | Cc1cc2nc3c(=O)[nH]c(=O)nc-3n(C[C@H](O)[C@H](O)[C@H](O)CO)c2cc1C [riboflavin] | 890 ± 170 nM | 760 ± 150 nM
– | – | Cc1cc2nc3c(=O)[nH]c(=O)nc-3n(C[C@H](O)[C@H](O)[C@H](O)COP(=O)(O)O)c2cc1C [FMN] | 230 ± 20 nM | 180 ± 30 nM
